Like-named read-outs stand apart in the source and are kept apart here.
Legend:
FIH^WT = biological target: T1, FIH^WT (Homo sapiens, UniProt Q9NWT6); experiment: Affinity-based fluorescence polarization (FP) assay with FIH WT, without and with 365 nm irradiation; conditions: read-out: Binding affinity to FIH^WT: Ki
T1 construct: pET28a vectors encoding for full-length FIH with an N-terminal His6 tag; His6 (N); host or cells: Escherichia coli BL21
From the text: We also performed a reported affinity-based fluorescence polarization (FP) assay (Figure S6) , under light activation to measure the binding affinity of NBA-ZG-2291 to FIH (Figure A). […] These observations are consistent with the intact protein MS analyzes. We also evaluated the binding affinities of two negative controls to FIH, which were designed not to covalently react with Lys106.
(§1) 4 (A) Light-induced click conjugation between NBA-ZG-2291 and FIH protein. (B) Light-induced binding affinity of NBA-ZG-2291 to FIH^ WT . (C) Light-induced binding affinity of NBA-ZG-2291 to FIH^ K106A . […] TEXT PRINTED IN THE PICTURE: (B) NBA-ZG-2291: Binding affinity to FIH^WT: Ki (nM): 414 ± 14 (Irradtion time (min): 0); Binding affinity to FIH^WT: Ki (nM): 74.1 ± 1.6 (Irradtion time (min): 15); Binding affinity to FIH^WT: Ki (nM): 46.7 ± 1.4 (Irradtion time (min): 30); Binding affinity to FIH^WT: Ki (nM): 33.2 ± 0.6 (Irradtion time (min): 60); Binding affinity to FIH^WT: Ki (nM): 30.2 ± 2.0 (Irradtion time (min): 90); Binding affinity to FIH^WT: Ki (nM): 32.1 ± 0.7 (Irradtion time (min): 120) | (B) Neg-1: Binding affinity to FIH^WT: Ki (nM): 423 ± 7 (Irradtion time (min): 0); Binding affinity to FIH^WT: Ki (nM): 408 ± 30 (Irradtion time (min): 15); Binding affinity to FIH^WT: Ki (nM): 459 ± 32 (Irradtion time (min): 30); Binding affinity to FIH^WT: Ki (nM): 427 ± 17 (Irradtion time (min): 60); Binding affinity to FIH^WT: Ki (nM): 396 ± 29 (Irradtion time (min): 90); Binding affinity to FIH^WT: Ki (nM): 428 ± 15 (Irradtion time (min): 120) | (B) Neg-2: Binding affinity to FIH^WT: Ki (nM): 742 ± 65 (Irradtion time (min): 0); Binding affinity to FIH^WT: Ki (nM): 799 ± 69 (Irradtion time (min): 15); Binding affinity to FIH^WT: Ki (nM): 758 ± 13 (Irradtion time (min): 30); Binding affinity to FIH^WT: Ki (nM): 744 ± 30 (Irradtion time (min): 60); Binding affinity to FIH^WT: Ki (nM): 788 ± 36 (Irradtion time (min): 90); Binding affinity to FIH^WT: Ki (nM): 786 ± 35 (Irradtion time (min): 120) | (C) NBA-ZG-2291: Binding affinity to FIH^K106A: Ki (nM): 442 ± 12 (Irradtion time (min): 0); Binding affinity to FIH^K106A: Ki (nM): 427 ± 22 (Irradtion time (min): 15); Binding affinity to FIH^K106A: Ki (nM): 426 ± 7 (Irradtion time (min): 30); Binding affinity to FIH^K106A: Ki (nM): 420 ± 11 (Irradtion time (min): 60); Binding affinity to FIH^K106A: Ki (nM): 418 ± 5 (Irradtion time (min): 90); Binding affinity to FIH^K106A: Ki (nM): 424 ± 12 (Irradtion time (min): 120) | (C) Neg-1: Binding affinity to FIH^K106A: Ki (nM): 271 ± 14 (Irradtion time (min): 0); Binding affinity to FIH^K106A: Ki (nM): 275 ± 15 (Irradtion time (min): 15); Binding affinity to FIH^K106A: Ki (nM): 268 ± 25 (Irradtion time (min): 30); Binding affinity to FIH^K106A: Ki (nM): 266 ± 22 (Irradtion time (min): 60); Binding affinity to FIH^K106A: Ki (nM): 264 ± 41 (Irradtion time (min): 90); Binding affinity to FIH^K106A: Ki (nM): 270 ± 3 (Irradtion time (min): 120) | (C) Neg-2: Binding affinity to FIH^K106A: Ki (nM): 567 ± 37 (Irradtion time (min): 0); Binding affinity to FIH^K106A: Ki (nM): 548 ± 61 (Irradtion time (min): 15); Binding affinity to FIH^K106A: Ki (nM): 521 ± 50 (Irradtion time (min): 30); Binding affinity to FIH^K106A: Ki (nM): 627 ± 17 (Irradtion time (min): 60); Binding affinity to FIH^K106A: Ki (nM): 565 ± 10 (Irradtion time (min): 90); Binding affinity to FIH^K106A: Ki (nM): 552 ± 38 (Irradtion time (min): 120) […]
(§2) 3. Experimental procedures
3.1 Fluorescence polarization (FP) assays1 with FIHWT and FIHK106A pET28a vectors encoding for full-length FIH with an N-terminal His6 tag or for FIH (K106A) with an N-terminal His6 tag were purchased from Nanjing Zoonbio Biotechnology. Both the FIHWT and FIHK106A protein were expressed from the respective plasmid in Escherichia coli BL21 at 20 °C for 16 h. E. coli cells were lysed and the lysate were clarified by centrifugation. His6- […]

FIH^K106A = biological target: T2, FIH^K106A (Homo sapiens, UniProt Q9NWT6, K106A); experiment: Affinity-based fluorescence polarization (FP) assay with the FIH K106A variant, without and with irradiation; format: binding; conditions: read-out: Binding affinity to FIH^K106A: Ki
T2 construct: encoding for full-length FIH with an N-terminal His6 tag or for FIH (K106A) with an N-terminal His6 tag; His6 (N); host or cells: Escherichia coli BL21
From the text: as §1
To further verify the covalent binding between NBA-ZG-2291 and Lys106, the FIH^ K106A variant was produced and purified.
as §2
3.1 Fluorescence polarization (FP) assays1 with FIHWT and FIHK106A pET28a vectors encoding for full-length FIH with an N-terminal His6 tag or for FIH (K106A) with an N-terminal His6 tag were purchased from Nanjing Zoonbio Biotechnology. Both the FIHWT and FIHK106A protein were expressed from the respective plasmid in Escherichia coli BL21 at 20 °C for 16 h. E. coli cells were lysed and the lysate were clarified by centrifugation. His6-tagged FIHWT or FIHK106A was purified on a HisTrap affinity column (GE Healthcare) by elution with an imidazole gradient. The final purified proteins were stored in PBS buffer.
FP assays were carried out using 384 -well plates (#3575, Corning); the polarization signal was measured using a SPARK Multi-Mode Microplate Reader (Tecan). […]

T2 sequence (Q9NWT6 whole entry K106A): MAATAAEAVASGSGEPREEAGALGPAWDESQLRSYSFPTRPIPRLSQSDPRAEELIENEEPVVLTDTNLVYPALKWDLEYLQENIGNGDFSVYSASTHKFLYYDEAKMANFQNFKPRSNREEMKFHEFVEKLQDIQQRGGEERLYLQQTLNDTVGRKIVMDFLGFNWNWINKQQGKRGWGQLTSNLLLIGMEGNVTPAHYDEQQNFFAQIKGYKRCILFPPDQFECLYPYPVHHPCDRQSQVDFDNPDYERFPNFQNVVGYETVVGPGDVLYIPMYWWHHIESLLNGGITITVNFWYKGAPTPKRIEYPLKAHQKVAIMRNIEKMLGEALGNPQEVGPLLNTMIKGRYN
T1 sequence (Q9NWT6 whole entry): as the sequence (Q9NWT6 whole entry K106A) above, with A106K counted along it

Structure (SMILES)	Ki (FIH^WT; irradiation time 0 min) [nM]	Ki (FIH^WT; irradiation time 15 min) [nM]	Ki (FIH^WT; irradiation time 30 min) [nM]	Ki (FIH^WT; irradiation time 60 min) [nM]	Ki (FIH^WT; irradiation time 90 min) [nM]	Ki (FIH^WT; irradiation time 120 min) [nM]	Ki (FIH^K106A; irradiation time 0 min) [nM]	Ki (FIH^K106A; irradiation time 15 min) [nM]	Ki (FIH^K106A; irradiation time 30 min) [nM]	Ki (FIH^K106A; irradiation time 60 min) [nM]	Ki (FIH^K106A; irradiation time 90 min) [nM]	Ki (FIH^K106A; irradiation time 120 min) [nM]
O=C(O)CNC(=O)c1ncc(-c2cc(-c3cccc([N+](=O)[O-])c3)no2)cc1O [Neg-1]	423 ± 7	408 ± 30	459 ± 32	427 ± 17	396 ± 29	428 ± 15	271 ± 14	275 ± 15	268 ± 25	266 ± 22	264 ± 41	270 ± 3
O=C(O)CNC(=O)c1ncc(-c2cc(-c3ccc(CO)cc3)no2)cc1O [Neg-2]	742 ± 65	799 ± 69	758 ± 13	744 ± 30	788 ± 36	786 ± 35	567 ± 37	548 ± 61	521 ± 50	627 ± 17	565 ± 10	552 ± 38
